Type in all cases: toxicity, cell-based
For series [1], the system named is HEK-293T. In words: Incucyte cell viability with HEK293T. The following applies: human, 10 µM, compound concentration 10 uM.
Series [2] deals with Fibroblast. In words: Incucyte cell viability with human fibroblast. The following applies: 10 µM, compound concentration 10 uM.
Series [3] has as its system U2OS. In words: Incucyte cell viability with U2OS. The following applies: human, 10 µM, compound concentration 10 uM.
The mark [4] stands for this setting: 6 h, replicate number 2, timepoint 6 hours.
The mark [5] stands for this setting: 12 h, replicate number 1, timepoint 12 hours.
[6] abbreviates: 12 h, replicate number 2, timepoint 12 hours.
Setting [7] is: 0 h, replicate number 2, timepoint 0 hours.
Setting [8] is: 6 h, replicate number 1, timepoint 6 hours.
[9] abbreviates: 18 h, replicate number 1, timepoint 18 hours.
Where [10] appears, read: 24 h, replicate number 1, timepoint 24 hours.
The mark [11] stands for this setting: 0 h, replicate number 1, timepoint 0 hours.
The mark [12] stands for this setting: 18 h, replicate number 2, timepoint 18 hours.
Setting [13] is: 24 h, replicate number 2, timepoint 24 hours.

This is an account of results in ChEMBL document CHEMBL5058564, “EUbOPEN Chemogenomics Library 2 (Incucyte)” (2022).
Further: unitless GR value; below 1 slowed growth and below 0 cell loss.

As to `Cl.Clc1ccc2nsnc2c1NC1=NCCN1` [TIZANIDINE HYDROCHLORIDE], the “Growth Rate” value is on record as 0.88 in series [1] (setting [4]); 1 in series [1] (setting [5]); 0.61 in series [1] (setting [6]); 0.25 in series [2] (setting [7]); -0.29 in series [2] (setting [8]); 0.72 in series [2] (setting [5]). Also, the “Growth Rate” value in series [2] (setting [9]) was 0.25; in series [2] (setting [10]) it was 0.25; in series [3] (setting [11]), 0.36; in series [3] (setting [7]) it was -1; in series [3] (setting [8]) it was 0.31.
On to `COc1ccccc1N1CCN(C[C@@H](C(=O)NC(C)(C)C)c2ccccc2)CC1.Cl.Cl`, for which the “Growth Rate” value was determined as 0.89 in series [1] (setting [11]); 0.54 in series [1] (setting [4]); 0.79 in series [1] (setting [6]); 0.48 in series [2] (setting [7]); 0.54 in series [2] (setting [8]); 0.96 in series [2] (setting [4]). Also, the “Growth Rate” value is on record as 0.69 in series [2] (setting [5]); 1 in series [2] (setting [9]); 0.57 in series [2] (setting [10]); -0.77 in series [3] (setting [7]); 0.29 in series [3] (setting [8]); 0.77 in series [3] (setting [9]). The “Growth Rate” value was determined as 0.92 in series [3] (setting [12]) and 1 in series [3] (setting [13]).
With `Cc1cc(C)cc([C@@H]2c3cc(C)ccc3NC(=O)CN2C(=O)c2ccc(Br)s2)c1`, the “Growth Rate” value stood at 0.35 in series [1] (setting [11]); 0.57 in series [1] (setting [7]); 0.88 in series [1] (setting [8]); 0.65 in series [1] (setting [5]); 0.79 in series [1] (setting [6]); 0.61 in series [1] (setting [9]). Moreover, the “Growth Rate” value in series [1] (setting [12]) is 0.69; in series [1] (setting [10]) it was 0.46; in series [1] (setting [13]), 0.7; in series [2] (setting [11]) it was 0.17; in series [2] (setting [7]), 0.74; in series [2] (setting [10]) it was 1. The entries for the “Growth Rate” value in series [3] (setting [9]), in series [3] (setting [12]) and in series [3] (setting [13]) were 0.98, 0.81 and 0.89, respectively.
`Cc1ccccc1N1CCN(S(=O)(=O)C[C@]23CC[C@H](C[C@@H]2NC(=O)[C@@H](N)CCS(C)(=O)=O)C3(C)C)CC1.Cl`: the “Growth Rate” value in series [1] (setting [11]) is listed as 0.81; in series [1] (setting [7]) it was 0.34; in series [1] (setting [8]), 0.8; in series [1] (setting [5]), 0.81; in series [1] (setting [6]), 0.75; in series [1] (setting [9]), 0.84. In addition, the “Growth Rate” value in series [1] (setting [12]) is 0.92; in series [1] (setting [10]) it was 0.97; in series [1] (setting [13]), 0.93; in series [2] (setting [11]) it was 0.33; in series [2] (setting [7]) it was 0.56; in series [2] (setting [6]), 0.8. For the same molecule, the “Growth Rate” value was 0.91 in series [2] (setting [12]); 0.76 in series [2] (setting [13]); -0.8 in series [3] (setting [11]); -0.25 in series [3] (setting [7]); 0.91 in series [3] (setting [8]); 0.85 in series [3] (setting [5]). For the same molecule, the “Growth Rate” value was 0.77 in series [3] (setting [9]), 0.89 in series [3] (setting [10]) and 1 in series [3] (setting [13]).
In the case of `CN(C)CCCOc1ccc(-c2cc(NCCCn3cccn3)nc(S(C)(=O)=O)n2)cc1`, the “Growth Rate” value was determined as 0.9 in series [1] (setting [8]); 0.97 in series [1] (setting [12]); 0.97 in series [1] (setting [13]); 0.56 in series [2] (setting [7]); 0.86 in series [2] (setting [8]); 0.96 in series [2] (setting [10]). The “Growth Rate” value came out at 0.2 in series [3] (setting [11]); 0.22 in series [3] (setting [8]); 0.71 in series [3] (setting [9]); 0.82 in series [3] (setting [12]); 0.85 in series [3] (setting [10]).
Regarding `COc1cc(NC(=O)CCN2CCC(OC(=O)Nc3ccccc3-c3ccccc3)CC2)c(Cl)cc1CNC[C@H](O)c1ccc(O)c2[nH]c(=O)ccc12` [BATEFENTEROL], the “Growth Rate” value in series [1] (setting [11]) is -0.23; in series [1] (setting [7]), 0.01; in series [1] (setting [5]), 0.88; in series [1] (setting [6]), 0.79; in series [1] (setting [9]), 0.8; in series [1] (setting [12]) it was 1. In addition, the “Growth Rate” value in series [2] (setting [11]) is -0.65; in series [2] (setting [7]), 0.38; in series [3] (setting [7]) it was -1; in series [3] (setting [9]), 0.93; in series [3] (setting [12]) it was 0.95; in series [3] (setting [10]), 1. Further, the “Growth Rate” value in series [3] (setting [13]) is 0.9.
As for `CNc1nc(NCc2ncccn2)c2c(-c3ccc4ncccc4c3)c[nH]c2n1`, the “Growth Rate” value is recorded as 0.21 in series [1] (setting [11]); 0.76 in series [1] (setting [7]); 0.37 in series [1] (setting [8]); 0.12 in series [1] (setting [4]); -0.16 in series [1] (setting [5]); -0.1 in series [1] (setting [6]). Besides, the “Growth Rate” value in series [1] (setting [9]) is listed as -0.23; in series [1] (setting [12]) it was -0.28; in series [1] (setting [10]), -0.25; in series [2] (setting [11]), 0.14; in series [2] (setting [7]) it was 0.3; in series [2] (setting [5]), 0.36. Moreover, the “Growth Rate” value is recorded as -0.14 in series [2] (setting [9]); 0.06 in series [2] (setting [10]); 0.67 in series [3] (setting [11]); 0.95 in series [3] (setting [6]); 0.27 in series [3] (setting [9]); 0.56 in series [3] (setting [12]). Also, the “Growth Rate” value in series [3] (setting [10]) stood at 0.4; in series [3] (setting [13]), 0.42.
As to `N=C(N)NCCC[C@@H](NC(=O)C(c1ccccc1)c1ccccc1)C(=O)NCc1ccc(CNC(N)=O)cc1.O=C(O)C(F)(F)F.O=C(O)C(F)(F)F`, the “Growth Rate” value in series [1] (setting [8]) is on record as 1; in series [1] (setting [4]), 0.41; in series [1] (setting [5]) it was 0.8; in series [1] (setting [9]) it was 0.83; in series [1] (setting [10]) it was 0.98; in series [2] (setting [11]), -0.19. For the same molecule, the “Growth Rate” value came to 0.44 in series [2] (setting [8]); 0.45 in series [2] (setting [4]); 0.58 in series [2] (setting [5]); 0.67 in series [2] (setting [6]); 0.41 in series [2] (setting [9]); 0.52 in series [2] (setting [10]). The “Growth Rate” value in series [3] (setting [7]) was found to be 0.75; in series [3] (setting [8]) it was 0.1; in series [3] (setting [4]), 0.61; in series [3] (setting [5]), 0.58; in series [3] (setting [6]), 0.93; in series [3] (setting [9]), 0.59. Also, the “Growth Rate” value in series [3] (setting [12]) is given as 0.96; in series [3] (setting [10]) it was 0.82; in series [3] (setting [13]), 0.83.
As to `O=C(NCCNCC(O)COc1ccc(O)cc1)N1CCOCC1.O=C(NCCNCC(O)COc1ccc(O)cc1)N1CCOCC1.O=C(O)/C=C/C(=O)O` (centres undefined) [XAMOTEROL FUMARATE], the “Growth Rate” value in series [1] (setting [11]) is listed as 0.82; in series [1] (setting [4]), 0.64; in series [1] (setting [6]), 0.95; in series [2] (setting [11]) it was -0.24; in series [2] (setting [7]), -0.01; in series [3] (setting [11]) it was 0.31. Besides, the “Growth Rate” value in series [3] (setting [7]) was -1.
Consider `N[C@@H]1c2cccnc2[C@H](OC(=O)N2CCC(n3c(=O)[nH]c4ncccc43)CC2)CC[C@H]1c1cccc(F)c1F` [RIMEGEPANT], for which the “Growth Rate” value in series [1] (setting [7]) is listed as 0.87; in series [1] (setting [8]) it was 0.99; in series [1] (setting [4]), 0.67; in series [1] (setting [10]), 0.89; in series [2] (setting [11]), 0.86; in series [2] (setting [8]), -0.21. Besides, the “Growth Rate” value is given as 0.05 in series [2] (setting [4]); -0.05 in series [2] (setting [5]); -0.02 in series [2] (setting [6]); 0.2 in series [2] (setting [9]); 0.18 in series [2] (setting [12]); 0.1 in series [2] (setting [10]). In addition, the “Growth Rate” value in series [2] (setting [13]) is -0.18; in series [3] (setting [11]) it was -0.42; in series [3] (setting [4]), 0.88; in series [3] (setting [12]) it was 0.96; in series [3] (setting [13]), 0.87.
`COC(=O)[C@H]1[C@H]2C[C@H]3c4[nH]c5ccccc5c4CCN3C[C@H]2CC[C@@H]1O.Cl` [RAUWOLSCINE HYDROCHLORIDE]: the “Growth Rate” value is on record as 0.51 in series [1] (setting [11]); 0.67 in series [1] (setting [7]); 0.76 in series [1] (setting [8]); 0.95 in series [1] (setting [5]); -0.08 in series [2] (setting [7]); 0.83 in series [2] (setting [8]). The “Growth Rate” value in series [2] (setting [5]) is reported as 0.59; in series [3] (setting [11]), -0.57; in series [3] (setting [8]), 0.53; in series [3] (setting [5]), 0.61; in series [3] (setting [6]), 0.89; in series [3] (setting [9]) it was 0.79. Moreover, the “Growth Rate” value in series [3] (setting [12]) is listed as 0.88; in series [3] (setting [13]), 0.98.
